Test results: paper PMC13210772, “Dual FLT3/MAPK14 Proteolysis-Targeting Chimera (PROTAC) Induces Potent Acute Myeloid Leukemia Cell Death” (Pharmaceuticals, 2026)

Legend:
YES1 = YES1 (Homo sapiens, UniProt P07947); assay: NanoBRET CELLinib128; conditions: read-out: Tracer bound
STK26 = STK26 (Homo sapiens, UniProt Q9P289); assay: NanoBRET CELLinib128; conditions: read-out: Tracer bound
[1] = Non-enzymatic stability under cellular assay conditions (HPLC); assay type: physicochemical; conditions: compound remaining, assay medium DMEM, 37 °C
Description: An important aspect in the development of PROTACs is testing chemical stability. On the one hand, we tested all PROTACs produced for their stability under cellular assay conditions. For this purpose, 10 µM solutions of the PROTACs and reference inhibitor were incubated for 72 h at 37 °C with the assay medium DMEM. The remaining amount of the compounds was determined by HPLC after 6, 12, 24, 48 and 72 h. The results of the stability studies are shown in Table S2 (Supplementary Information).
The developed compounds were diluted in the assay media consisting of a mixture of DMEM (50%), DMSO (10%) and acetonitrile (40%) at pH 7.4 and incubated at 37 °C for 72 h. The quantity of the compounds was measured after 6, 12, 24, 48, and 72 h by HPLC using an XTerra RP18 column ([…], 3.9 mm × 100 mm) from the manufacturer Waters (Milford, MA, USA) and two LC-10AD pumps, an SPD-M10AVP PDA detector, and an SIL-HT autosampler, all from the manufacturer Shimadzu (Kyoto, Japan).

MAPK11 = MAPK11 (Homo sapiens, UniProt Q15759); assay: NanoBRET CELLinib128; conditions: read-out: Tracer bound
Chain of MAPK11 (Q15759 whole entry): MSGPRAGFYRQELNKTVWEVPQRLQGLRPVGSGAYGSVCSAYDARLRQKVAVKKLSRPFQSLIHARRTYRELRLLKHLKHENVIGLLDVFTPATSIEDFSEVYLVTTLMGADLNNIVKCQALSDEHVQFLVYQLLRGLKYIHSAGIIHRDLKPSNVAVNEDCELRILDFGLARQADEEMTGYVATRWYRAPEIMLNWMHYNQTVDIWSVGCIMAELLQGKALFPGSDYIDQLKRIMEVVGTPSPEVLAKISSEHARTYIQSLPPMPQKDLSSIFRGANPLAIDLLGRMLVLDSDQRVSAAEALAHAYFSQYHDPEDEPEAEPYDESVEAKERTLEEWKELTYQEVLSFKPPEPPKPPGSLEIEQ

EPHB1 = EPHB1 (Homo sapiens, UniProt P54762); assay: NanoBRET CELLinib128; conditions: read-out: Tracer bound
Chain of EPHB1 (P54762 18-984): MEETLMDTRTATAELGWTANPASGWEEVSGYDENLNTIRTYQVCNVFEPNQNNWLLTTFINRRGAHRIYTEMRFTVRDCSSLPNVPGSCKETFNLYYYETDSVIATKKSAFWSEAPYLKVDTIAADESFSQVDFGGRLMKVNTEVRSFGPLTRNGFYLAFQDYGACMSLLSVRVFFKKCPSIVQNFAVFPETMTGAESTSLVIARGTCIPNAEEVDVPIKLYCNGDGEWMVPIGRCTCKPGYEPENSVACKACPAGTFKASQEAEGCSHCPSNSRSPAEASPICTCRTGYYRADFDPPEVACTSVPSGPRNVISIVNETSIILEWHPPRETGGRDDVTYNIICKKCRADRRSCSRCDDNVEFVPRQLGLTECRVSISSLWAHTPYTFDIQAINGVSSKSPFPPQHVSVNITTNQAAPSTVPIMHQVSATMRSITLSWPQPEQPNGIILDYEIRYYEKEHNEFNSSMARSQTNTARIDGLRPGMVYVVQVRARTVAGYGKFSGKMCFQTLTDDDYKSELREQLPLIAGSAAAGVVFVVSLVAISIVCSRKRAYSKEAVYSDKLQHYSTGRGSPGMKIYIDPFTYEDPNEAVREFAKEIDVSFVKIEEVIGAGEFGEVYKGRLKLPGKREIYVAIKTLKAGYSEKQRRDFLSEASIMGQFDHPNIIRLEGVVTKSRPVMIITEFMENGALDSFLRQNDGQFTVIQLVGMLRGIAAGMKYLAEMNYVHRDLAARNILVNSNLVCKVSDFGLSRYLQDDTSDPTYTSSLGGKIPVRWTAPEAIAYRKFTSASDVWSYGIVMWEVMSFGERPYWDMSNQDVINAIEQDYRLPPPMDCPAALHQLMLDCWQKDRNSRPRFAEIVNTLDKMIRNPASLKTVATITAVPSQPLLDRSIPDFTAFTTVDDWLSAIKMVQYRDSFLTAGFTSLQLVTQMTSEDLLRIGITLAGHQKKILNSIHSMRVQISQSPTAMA

FGR = FGR (Homo sapiens, UniProt P09769); assay: NanoBRET CELLinib128; conditions: read-out: Tracer bound
Chain of FGR (P09769 whole entry): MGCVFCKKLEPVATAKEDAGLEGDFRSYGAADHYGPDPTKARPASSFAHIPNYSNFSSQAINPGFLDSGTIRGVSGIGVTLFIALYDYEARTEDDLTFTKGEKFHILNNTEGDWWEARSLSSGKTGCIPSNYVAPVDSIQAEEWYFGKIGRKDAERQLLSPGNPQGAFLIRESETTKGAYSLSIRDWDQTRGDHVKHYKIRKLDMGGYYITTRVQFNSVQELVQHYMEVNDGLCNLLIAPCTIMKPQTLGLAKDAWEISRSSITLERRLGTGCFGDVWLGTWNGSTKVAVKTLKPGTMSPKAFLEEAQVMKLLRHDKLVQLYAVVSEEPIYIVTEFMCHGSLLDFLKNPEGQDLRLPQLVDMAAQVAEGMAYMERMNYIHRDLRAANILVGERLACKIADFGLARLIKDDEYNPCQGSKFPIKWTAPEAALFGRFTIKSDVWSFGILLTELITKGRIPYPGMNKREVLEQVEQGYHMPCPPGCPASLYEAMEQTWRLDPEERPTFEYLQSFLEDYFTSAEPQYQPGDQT

Plasma stability = assay type: in vitro ADME; conditions: for plasma stability: human plasma, 6 h; for remaining at 0 h, 10 µM / remaining at 10 min, 10 µM / remaining at 0.5 h, 10 µM / remaining at 1 h, 10 µM / remaining at 2 h, 10 µM / remaining at 6 h, 10 µM: pooled human plasma, 37 °C; for remaining at 0 h, 10 µM: 0 min, read-out: 0 min—Compound Remaining %; for remaining at 10 min, 10 µM: read-out: 10 min—Compound Remaining %; for remaining at 0.5 h, 10 µM: 30 min, read-out: 30 min—Compound Remaining %; for remaining at 1 h, 10 µM: 60 min, read-out: 60 min—Compound Remaining %; for remaining at 2 h, 10 µM: 120 min, read-out: 120 min—Compound Remaining %; for remaining at 6 h, 10 µM: 360 min, read-out: 360 min—Compound Remaining %
Description: Another aspect we tested for selected PROTACs, and the reference inhibitor is the stability in human plasma. PROTACs MA190 and MA191 and their parent inhibitor MA68 (10 μM, final DMSO concentration 1%) were incubated with 100 μL pooled human plasma at 37 °C. The remaining amount of the incubated compound was tested for 6 h using a HPLC method. […] The further detailed biological characterization of MA191 and the successful in vivo testing can be found in a study submitted in parallel.
To determine plasma stability, 10 μM of the given compound was incubated with 100 μL human pooled plasma for 5, 10, 30, 60, 120 and 360 min at 37 °C. The reactions were stopped by adding 300 μL of acetonitrile with subsequent plasma proteins sedimentation. The samples were subjected to ultra-centrifugation (5 min, 10,000 RPM/g) using modified PES 30K low protein binding centrifugal filter. The filtrate was then analyzed using HPLC to determine the available concentration of the compounds and also to determine and quantify potential degradation products. As HPLC system a LiChrosorb® RP-18 (5 μm) 100–4.6 column from the manufacturer Merck, two LC-10AD pumps, a SPD-M10A VP PDA detector, and a SIL HT auto-sampler were used (all from the manufacturer Shimadzu, Kyoto, Japan). As mobile phase a gradient with […] composed of methanol/water/trifluoroacetic acid at a flow rate of 1 mL/min. UV absorbance was measured at 254 nm was used.

GSK3A = GSK3A (Homo sapiens, UniProt P49840); assay: NanoBRET CELLinib128; conditions: read-out: Tracer bound
Chain of GSK3A (P49840 whole entry): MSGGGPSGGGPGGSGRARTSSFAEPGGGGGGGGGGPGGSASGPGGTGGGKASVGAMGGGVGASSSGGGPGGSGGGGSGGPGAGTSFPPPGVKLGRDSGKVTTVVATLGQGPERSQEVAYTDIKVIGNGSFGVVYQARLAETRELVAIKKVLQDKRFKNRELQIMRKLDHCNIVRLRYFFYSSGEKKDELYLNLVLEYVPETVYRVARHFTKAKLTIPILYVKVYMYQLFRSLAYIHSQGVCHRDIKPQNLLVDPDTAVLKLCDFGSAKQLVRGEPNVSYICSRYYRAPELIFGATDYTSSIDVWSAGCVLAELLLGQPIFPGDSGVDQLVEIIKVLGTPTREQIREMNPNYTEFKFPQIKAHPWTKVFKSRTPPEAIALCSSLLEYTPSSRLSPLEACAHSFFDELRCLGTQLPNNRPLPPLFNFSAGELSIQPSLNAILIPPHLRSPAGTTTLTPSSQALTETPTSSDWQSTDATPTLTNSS

EPHA8 = EPHA8 (Homo sapiens, UniProt P29322); assay: NanoBRET CELLinib128; conditions: read-out: Tracer bound
Chain of EPHA8 (P29322 28-1005): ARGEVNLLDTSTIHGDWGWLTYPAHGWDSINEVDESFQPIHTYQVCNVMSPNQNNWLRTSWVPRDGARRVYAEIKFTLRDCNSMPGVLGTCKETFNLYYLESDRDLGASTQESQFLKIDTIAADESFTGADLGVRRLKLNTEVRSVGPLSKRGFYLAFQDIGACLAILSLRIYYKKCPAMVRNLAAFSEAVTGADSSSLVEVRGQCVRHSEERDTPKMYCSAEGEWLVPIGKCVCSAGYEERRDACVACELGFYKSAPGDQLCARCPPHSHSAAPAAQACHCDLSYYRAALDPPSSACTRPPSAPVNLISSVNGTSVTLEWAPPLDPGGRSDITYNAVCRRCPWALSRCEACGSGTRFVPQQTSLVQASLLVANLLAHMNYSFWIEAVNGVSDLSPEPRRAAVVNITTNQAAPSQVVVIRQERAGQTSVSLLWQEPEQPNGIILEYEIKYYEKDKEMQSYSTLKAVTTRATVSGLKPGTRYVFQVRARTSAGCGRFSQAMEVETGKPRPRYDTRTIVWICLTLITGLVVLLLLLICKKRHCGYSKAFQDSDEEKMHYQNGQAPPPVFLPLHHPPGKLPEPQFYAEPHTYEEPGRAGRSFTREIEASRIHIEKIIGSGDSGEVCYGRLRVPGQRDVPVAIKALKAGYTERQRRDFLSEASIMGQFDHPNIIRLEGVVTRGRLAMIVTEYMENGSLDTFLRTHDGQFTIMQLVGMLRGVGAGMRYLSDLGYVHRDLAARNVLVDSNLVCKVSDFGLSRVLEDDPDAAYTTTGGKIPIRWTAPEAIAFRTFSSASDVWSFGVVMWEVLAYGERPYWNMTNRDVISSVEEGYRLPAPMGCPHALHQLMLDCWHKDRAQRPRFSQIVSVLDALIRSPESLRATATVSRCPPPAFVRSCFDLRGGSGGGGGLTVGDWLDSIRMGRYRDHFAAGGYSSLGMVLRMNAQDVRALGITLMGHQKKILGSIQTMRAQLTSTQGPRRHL

MOLM-13 cells = assay: Apoptosis by flow cytometry (annexin-V/propidium iodine); assay type: cell-based, human; conditions: 72 h
Description: To further assess the biological relevance of these findings, we treated MV4-11 cells with the new PROTACs, included MA49 as control, and analyzed them for early (annexin-V positive) and late apoptosis (annexin-V and propidium iodine positive) by flow cytometry. Cells in late apoptosis are more severely damaged than cells in early apoptosis. […] After 72 h, all degraders evoked equal levels of apoptosis (Figure 4c). We additionally tested these degraders in MOLM-13 cells which carry FLT3-ITD and FLT3 from a patient with AML after initial myelodysplastic syndrome.
Figure 4 Biological and biochemical characterization of the FLT3 PROTACs. (a) MV4-11 cells were incubated for 24 h with 50 nM of the indicated compounds. Immunoblotting was performed for the indicated proteins and their phosphorylation (p-) or cleavage (cl.; indicated by arrows); β-actin was used to ensure equal sample loading. (b) MV4-11 cells were treated with the indicated agents and analyzed for early and late apoptosis by flow cytometry. (c) Same as in (b) but treatment for 72 h. (d) MOLM-13 cells were treated with the indicated agents and analyzed for early and late apoptosis by flow cytometry. […] Immunoblots show the expression of the indicated proteins and their phosphorylation (p-); β-actin was used to ensure equal sample loading. All immunoblots show data from at least two independent repetitions and flow cytometry analyses were conducted thrice independently; * […], ** p < 0.01, *** p < 0.001, **** p < 0.0001.

FLT3-ITD = assay: KINOMEscan binding assay
Description: Binding to FLT3-ITD was determined using the KINOMEscan^TM assay (Eurofins DiscoverX Corporation, San Diego, CA, USA)
Kinase-tagged T7 phage strains were prepared in an E. coli host derived from the BL21 strain. E. coli were grown to log-phase and infected with T7 phage and incubated with shaking at 32 °C until lysis. The lysates were centrifuged and filtered to remove cell debris. The remaining kinases were produced in HEK-293 cells and subsequently tagged with DNA for qPCR detection. […] The liganded beads were blocked with excess biotin and washed with blocking buffer (SeaBlock (Pierce), 1% BSA, 0.05% Tween 20, 1 mM DTT) to remove unbound ligand and to reduce non-specific binding. […] The compounds were then diluted directly into the assays such that the final concentration of DMSO was 0.9%. All reactions performed in polypropylene 384-well plate. Each was a final volume of 0.02 mL. […] The kinase concentration in the eluates was measured by qPCR.

Chain of STK26 (Q9P289 whole entry): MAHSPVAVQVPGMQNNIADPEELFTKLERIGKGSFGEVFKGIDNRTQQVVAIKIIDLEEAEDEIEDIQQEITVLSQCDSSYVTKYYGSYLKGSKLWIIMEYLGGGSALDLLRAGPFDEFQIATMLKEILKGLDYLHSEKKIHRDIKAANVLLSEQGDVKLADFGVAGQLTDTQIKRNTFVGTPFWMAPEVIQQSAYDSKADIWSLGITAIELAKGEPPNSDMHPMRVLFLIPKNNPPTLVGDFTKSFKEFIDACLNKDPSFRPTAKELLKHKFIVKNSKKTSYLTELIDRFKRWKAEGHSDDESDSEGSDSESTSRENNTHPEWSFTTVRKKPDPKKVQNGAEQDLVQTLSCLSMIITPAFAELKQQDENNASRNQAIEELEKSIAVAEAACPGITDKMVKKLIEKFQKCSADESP
Chain of YES1 (P07947 whole entry): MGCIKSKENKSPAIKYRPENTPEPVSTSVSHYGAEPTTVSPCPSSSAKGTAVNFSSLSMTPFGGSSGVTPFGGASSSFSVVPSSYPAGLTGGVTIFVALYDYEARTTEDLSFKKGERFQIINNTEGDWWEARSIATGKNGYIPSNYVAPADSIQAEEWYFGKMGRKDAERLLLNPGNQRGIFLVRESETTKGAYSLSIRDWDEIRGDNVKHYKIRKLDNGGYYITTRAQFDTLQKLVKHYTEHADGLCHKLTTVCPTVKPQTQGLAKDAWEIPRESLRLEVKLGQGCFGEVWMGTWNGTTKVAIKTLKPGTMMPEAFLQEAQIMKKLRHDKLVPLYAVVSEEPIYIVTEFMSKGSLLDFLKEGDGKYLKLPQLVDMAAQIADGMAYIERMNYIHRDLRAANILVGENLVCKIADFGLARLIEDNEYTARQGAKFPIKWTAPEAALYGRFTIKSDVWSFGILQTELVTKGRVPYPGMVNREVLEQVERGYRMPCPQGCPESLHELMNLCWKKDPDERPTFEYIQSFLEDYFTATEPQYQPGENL

CNC(=O)c1cc(Oc2ccc(NC(=O)Nc3cc(C(C)(C)C)on3)cc2)ccn1 [MA68, reference compound]
remaining activity at 1 µM (YES1): 77.1%
remaining activity at 1 µM (STK26): 88.5%
0 h - % [1]: 100%
6 h- % [1]: 101.0%
12 h- % [1]: 102.4%
24 h- % [1]: 102.1%
48 h- % [1]: 105.7%
72 h- % [1]: 105.2%
remaining activity at 1 µM (MAPK11): 24%
remaining activity at 1 µM (EPHB1): 27.7%
remaining activity at 1 µM (FGR): 119%
plasma stability (Plasma stability): high plasma stability
remaining at 0 h, 10 µM (Plasma stability): 100%
remaining at 10 min, 10 µM (Plasma stability): 92.9 ± 0.2%
remaining at 0.5 h, 10 µM (Plasma stability): 94.2 ± 1.2%
remaining at 1 h, 10 µM (Plasma stability): 91.9 ± 3.1%
remaining at 2 h, 10 µM (Plasma stability): 93.6 ± 3.2%
remaining at 6 h, 10 µM (Plasma stability): 88.9 ± 3.2%
remaining activity at 1 µM (GSK3A): 95.9%
remaining activity at 1 µM (EPHA8): 38.9%

Cc1ncsc1-c1ccc([C@H](C)NC(=O)[C@@H]2C[C@@H](O)CN2C(=O)[C@@H](NC(=O)[C@H]2CC[C@H](C(=O)N3CCN(CCNC(=O)c4cc(Oc5ccc(NC(=O)Nc6cc(C(C)(C)C)on6)cc5)ccn4)CC3)CC2)C(C)(C)C)cc1 [MA191, 4-(4-(3-(5-(tert-Butyl)isoxazol-3-yl)ureido)phenoxy)-N-(2-(4-(trans-4-(((S)-1-((2S,4R)-4-hydroxy-2-(((S)-1-(4-(4-methylthiazol-5-yl)phenyl)ethyl)carbamoyl)pyrrolidin-1-yl)-3,3-dimethyl-1-oxobutan-2-yl)carbamoyl)cyclohexanecarbonyl)piperazin-1-yl)ethyl)picolinamide]
remaining activity at 1 µM (YES1): 120%
remaining activity at 1 µM (STK26): 82.3%
0 h - % [1]: 100%
6 h- % [1]: 100.3%
12 h- % [1]: 100.0%
24 h- % [1]: 99.7%
48 h- % [1]: 100.3%
72 h- % [1]: 100.3%
remaining activity at 1 µM (MAPK11): 96.2%
induction of late apoptosis (MOLM-13 cells): most potent inducers of late apoptosis
% FLT3-ITD Binding at 1 µM (FLT3-ITD): 88 ± 2%
remaining activity at 1 µM (EPHB1): 85.1%
remaining activity at 1 µM (FGR): 120%
plasma stability (Plasma stability): high plasma stability
remaining at 0 h, 10 µM (Plasma stability): 100%
remaining at 10 min, 10 µM (Plasma stability): 95.9 ± 9.4%
remaining at 0.5 h, 10 µM (Plasma stability): 93.3 ± 4.2%
remaining at 1 h, 10 µM (Plasma stability): 92.6 ± 5.7%
remaining at 2 h, 10 µM (Plasma stability): 94.9 ± 1.8%
remaining at 6 h, 10 µM (Plasma stability): 93.3 ± 0.7%
remaining activity at 1 µM (GSK3A): 118%
remaining activity at 1 µM (EPHA8): 120%

Cc1ncsc1-c1ccc([C@H](C)NC(=O)[C@@H]2C[C@@H](O)CN2C(=O)[C@@H](NC(=O)[C@H]2CC[C@H](C(=O)N3CCC(CCNC(=O)c4cc(Oc5ccc(NC(=O)Nc6cc(C(C)(C)C)on6)cc5)ccn4)CC3)CC2)C(C)(C)C)cc1 [MA190, 4-(4-(3-(5-(tert-Butyl)isoxazol-3-yl)ureido)phenoxy)-N-(2-(1-(trans-4-(((S)-1-((2S,4R)-4-hydroxy-2-(((S)-1-(4-(4-methylthiazol-5-yl)phenyl)ethyl)carbamoyl)pyrrolidin-1-yl)-3,3-dimethyl-1-oxobutan-2-yl)carbamoyl)cyclohexanecarbonyl)piperidin-4-yl)ethyl)picolinamide]
0 h - % [1]: 100%
6 h- % [1]: 102.6%
12 h- % [1]: 103.2%
24 h- % [1]: 104.4%
48 h- % [1]: 105.4%
72 h- % [1]: 107.4%
induction of late apoptosis (MOLM-13 cells): most potent inducers of late apoptosis
% FLT3-ITD Binding at 1 µM (FLT3-ITD): 71 ± 1%
plasma stability (Plasma stability): high plasma stability
remaining at 0 h, 10 µM (Plasma stability): 100%
remaining at 10 min, 10 µM (Plasma stability): 94.1 ± 4.7%
remaining at 0.5 h, 10 µM (Plasma stability): 89.5 ± 1.8%
remaining at 1 h, 10 µM (Plasma stability): 88.3 ± 0.2%
remaining at 2 h, 10 µM (Plasma stability): 86 ± 2%
remaining at 6 h, 10 µM (Plasma stability): 86.2 ± 2.4%

Cc1ncsc1-c1ccc([C@H](C)NC(=O)[C@@H]2C[C@@H](O)CN2C(=O)[C@@H](NC(=O)CCOCCOCCOCCNC(=O)c2cc(Oc3ccc(NC(=O)Nc4cc(C(C)(C)C)on4)cc3)ccn2)C(C)(C)C)cc1 [MA49, reference compound]
0 h - % [1]: 100%
6 h- % [1]: 101.1%
12 h- % [1]: 101.4%
24 h- % [1]: 103.5%
48 h- % [1]: 104.2%
72 h- % [1]: 104.9%
induction of late apoptosis (MOLM-13 cells): most potent inducers of late apoptosis
% FLT3-ITD Binding at 1 µM (FLT3-ITD): 91 ± 2%
remaining at 0 h, 10 µM (Plasma stability): 100%
remaining at 10 min, 10 µM (Plasma stability): 94.9 ± 2.5%
remaining at 0.5 h, 10 µM (Plasma stability): 96.1 ± 1.7%
remaining at 1 h, 10 µM (Plasma stability): 95.2 ± 2.8%
remaining at 2 h, 10 µM (Plasma stability): 93.2 ± 6.7%
remaining at 6 h, 10 µM (Plasma stability): 95.4 ± 4.3%
